The results in this text go back to US20250197407A1 (Jazz Pharmaceuticals Ireland Limited, priority 2022, published 2025).

For this experiment, the target named is SOS1/KRAS WT (Homo sapiens (Human), UniProt Q07889). Nature of the experiment: SOS1/KRAS WT HTRF binding assay (FRET-based protein-protein interaction). As to conditions: inhibition of His6-SOS1 (aa564-1049, 40 nM) binding to GST-KRAS-WT (aa1-188, 40 nM); at least two independent replicates; read-out: SOS1/KRAS WT HTRF Binding assay pIC50 (converted). In short, it runs like this: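 Time-resolved FRET at 665 nm, read 4 hr after adding anti-GST-Eu(K) (4 nM) and anti-6His-XL665 (20 nM), tracked SOS1(aa564-1049)–KRAS WT(aa1-188) association. Both proteins were at 40 nM, pre-incubated 60 min at room temperature with compound. Max/min signals came from 0.05% DMSO and 10 μM reference, with four-parameter logistic IC50.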
Chain of SOS1/KRAS WT (Q07889 564-1049): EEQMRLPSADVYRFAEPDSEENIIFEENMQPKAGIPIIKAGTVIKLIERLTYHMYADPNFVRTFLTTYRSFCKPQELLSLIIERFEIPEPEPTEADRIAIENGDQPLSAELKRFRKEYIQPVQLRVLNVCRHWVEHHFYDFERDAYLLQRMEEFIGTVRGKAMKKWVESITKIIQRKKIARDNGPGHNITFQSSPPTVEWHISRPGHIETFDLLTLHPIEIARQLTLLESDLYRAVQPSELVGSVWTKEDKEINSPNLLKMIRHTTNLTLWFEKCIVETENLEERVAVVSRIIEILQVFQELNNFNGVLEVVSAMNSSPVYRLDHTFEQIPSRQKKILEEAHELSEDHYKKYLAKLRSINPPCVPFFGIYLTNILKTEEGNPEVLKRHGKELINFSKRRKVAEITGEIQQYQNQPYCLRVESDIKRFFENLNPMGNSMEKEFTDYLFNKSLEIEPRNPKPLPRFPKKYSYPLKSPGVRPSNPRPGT
Consider `CCOC1(C)C(=O)N(C)c2cc3c(N[C@H](C)c4cccc(C(F)(F)CO)c4)nnc(C)c3cc21` (stereo partly drawn) [Compound 133, 3-ethoxy-1,3,5-trimethyl-8-[[(1R)-1-[3-(1,1-difluoro-2-hydroxy-ethyl)phenyl]ethyl]amino]pyrrolo [2,3-g]phthalazin-2-one], for which the IC50 was 8.51 nM.

As for `Cc1nnc(N[C@H](C)c2cccc(C(F)(F)CO)c2F)c2cc3c(cc12)N(C)C(=O)C3(C)C` [Compound 99, 1,3,3,8-tetramethyl-5-[[(1R)-1-[3-(1,1-difluoro-2-hydroxy-ethyl)-2-fluoro-phenyl]ethyl]amino]pyrrolo[3,2-g]phthalazin-2-one], the IC50 is 8.13 nM.

As for `Cc1nnc(NC(C)c2cccc(C(F)(F)F)c2)c2cc3c(cc12)n(C)c(=O)n3C1CCCC1` (stereo not drawn) [Compound 1, 3-cyclopentyl-1,8-dimethyl-5-[1-[3-(trifluoromethyl)phenyl]-ethylamino]^− imidazo[4,5-g]phthalazin-2-one], the IC50 was 37.2 nM.

For the compound `Cc1c(-c2ccnn2C)cccc1[C@@H](C)Nc1nnc(C)c2cc3c(cc12)n(C)c(=O)n3C` [Compound 150, 1,3,8-trimethyl-5-[[(1R)-1-[2-methyl-3-(2-methylpyrazol-3-yl)phenyl]ethyl]amino]imidazo[4,5-g]phthalazin-2-one], the IC50 was 8.91 nM.

For `Cc1nnc(N[C@H](C)c2cccc(C(F)(F)CO)c2F)c2cc3c(cc12)C1(CCOCC1)C(=O)N3C` [Compound 89, 1,5-dimethyl-8-[[(1R)-1-[3-(1,1-difluoro-2-hydroxy-ethyl)-2-fluoro-phenyl]ethyl]amino]spiro[pyrrolo [2,3-g]phthalazine-3,4′-tetrahydropyran]-2-one], the IC50 was 8.13 nM.

As for `COc1c([C@@H](C)Nc2nnc(C)c3cc4c(cc23)n(C)c(=O)n4C)cccc1C(F)(F)F` [Compound 55, 5-[[(1R)-1-[2-methoxy-3-(trifluoromethyl)phenyl]ethyl]amino]-1,3,8-trimethyl-imidazo[4,5-g]phthalazin-2-one], the IC50 was 57.5 nM.

Consider `Cc1nnc(N[C@H](C)c2cccc(C(F)(F)C(C)(C)O)c2)c2cc3c(cc12)n(C)c(=O)n3C(C)C` [Compound 87, 3-isopropyl-1,8-dimethyl-5-[[(1R)-1-[3-(1,1-difluoro-2-hydroxy-2-methyl-propyl)phenyl]ethyl]amino]imidazo [4,5-g]phthalazin-2-one], for which the IC50 was 8.51 nM.

Regarding `Cc1c([C@@H](C)Nc2nnc(C)c3cc4c(cc23)N(C)C(=O)C42CCOCC2)cccc1C(F)(F)C(C)(C)O` [Compound 104, 1,5-dimethyl-8-[[(1R)-1-[3-(1,1-difluoro-2-hydroxy-2-methyl-propyl)-2-methyl-phenyl]ethyl]amino]spiro[pyrrolo[2,3-g]phthalazine-3,4′-tetrahydropyran]-2-one], the IC50 was 24.5 nM.

Take `CNCC(F)(F)c1cccc([C@@H](C)Nc2nnc(C)c3cc4c(cc23)n(C)c(=O)n4C)c1F` [Compound 63, 1,3,8-trimethyl-5-[[(1R)-1-[3-[1,1-difluoro-2-(methylamino)ethyl]-2-fluoro-phenyl]ethyl]amino]imidazo[4,5-g]phthalazin-2-one]: the IC50 was 15.8 nM.

As for `Cc1nnc(N[C@H](C)c2cccc(C(F)F)c2F)c2cc3c(cc12)n(C)c(=O)n3[C@H]1CCOC1` [Compound 146, 5-[[(1R)-1-[3-(difluoromethyl)-2-fluoro-phenyl]ethyl]amino]-1,8-dimethyl-3-[(3S)-tetrahydrofuran-3-yl]imidazo[4,5-g]phthalazin-2-one], the IC50 is 12.3 nM.

In the case of `Cc1c([C@@H](C)Nc2nnc(C)c3cc4c(cc23)N(C(C)C)C(=O)C4(C)C)cccc1C(F)(F)C(C)(C)O` [Compound 124, 1-isopropyl-3,3,5-trimethyl-8-[[(1R)-1-[3-(1,1-difluoro-2-hydroxy-2-methyl-propyl)-2-methyl-phenyl]ethyl]amino]pyrrolo[2,3-g]phthalazin-2-one], the IC50 is 6.17 nM.

Regarding `Cc1c(C2CCOCC2)cccc1[C@@H](C)Nc1nnc(C)c2cc3c(cc12)n(C)c(=O)n3C` [Compound 160, 1,3,8-trimethyl-5-[[(1R)-1-(2-methyl-3-tetrahydropyran-4-yl-phenyl)ethyl]amino]imidazo[4,5-g]phthalazin-2-one], the IC50 was 269 nM.

As to `COC1(C)C(=O)N(C)c2cc3c(N[C@H](C)c4cccc(C(F)(F)CO)c4F)nnc(C)c3cc21` (stereo partly drawn) [Compound 93, 3-methoxy-1,3,5-trimethyl-8-[[(1R)-1-[3-(1,1-difluoro-2-hydroxy-ethyl)-2-fluoro-phenyl]ethyl]amino]pyrrolo[2,3-g]phthalazin-2-one], the IC50 is 7.41 nM.

On to `COCCn1c(=O)n(C)c2cc3c(N[C@H](C)c4cccc(C(F)(F)F)c4)nnc(C)c3cc21` [Compound 17, 1-(2-methoxyethyl)-3,8-dimethyl-5-[[(1R)-1-[3-(trifluoromethyl)phenyl]ethyl]amino] imidazo[4,5-g]phthalazin-2-one], for which the IC50 was 22.9 nM.

Turning to `COCCn1c(=O)n(C)c2cc3c(C)nnc(N[C@H](C)c4cccc(C(F)F)c4F)c3cc21` [Compound 28, 3-(2-methoxyethyl)-1,8-dimethyl-5-[[(1R)-1-[3-(difluoromethyl)-2-fluoro-phenyl]ethyl]amino]imidazo[4,5-g]phthalazin-2-one], the IC50 is 12.3 nM.

As to `Cc1nnc(N[C@H](C)c2cccc(C(F)(F)F)c2)c2cc3c(cc12)OC1(CC1)C(=O)N3C(C)C` [Compound 25, 4′-isopropyl-9′-methyl-6′-[[(1R)-1-[3-(trifluoromethyl)phenyl]ethyl]amino]spiro[cyclopropane-1,2′-pyridazino[4,5-g][1,4]benzoxazine]-3′-one], the IC50 is 63.1 nM.

`CCOC1(C)C(=O)N(C)c2cc3c(N[C@H](C)c4cccc(C(F)(F)C(C)(C)O)c4F)nnc(C)c3cc21` (stereo partly drawn) [Compound 132, 3-ethoxy-1,3,5-trimethyl-8-[[(1R)-1-[3-(1,1-difluoro-2-hydroxy-2-methyl-propyl)-2-fluoro-phenyl]ethyl]amino]pyrrolo[2,3-g]phthalazin-2-one]: the IC50 is 7.94 nM.

On to `Cc1c(C(F)F)cccc1[C@@H](C)Nc1nnc(C)c2cc3c(cc12)n(C1CC1)c(=O)n3C` [Compound 213, 3-cyclopropyl-5-[[(1R)-1-[3-(difluoromethyl)-2-methyl-phenyl]ethyl]amino]-1,8-dimethyl-imidazo[4,5-g]phthalazin-2-one], for which the IC50 was 11 nM.

As to `Cc1nnc(N[C@H](C)c2cccc(C(F)(F)F)c2)c2cc3c(cc12)n(C)c(=O)n3C1CC1` [Compound 13, 3-cyclopropyl-1,8-dimethyl-5-[[(1R)-1-[3-(trifluoromethyl)phenyl]ethyl]amino]imidazo[4,5-g]phthalazin-2-one], the IC50 is 11.5 nM.

For the compound `Cc1nnc(N[C@H](C)c2cccc(C(F)(F)CO)c2)c2cc3c(cc12)C1(CCOCC1)C(=O)N3C1CC1` [Compound 112, 1-cyclopropyl-5-methyl-8-[[(1R)-1-[3-(1,1-difluoro-2-hydroxy-ethyl)phenyl]ethyl]amino]spiro [pyrrolo[2,3-g]phthalazine-3,4′-tetrahydropyran]-2-one], the IC50 is 11 nM.

Consider `Cc1nnc(N[C@H](C)c2cccc(C(F)F)c2F)c2cc3c(cc12)OC(C)(C)C(=O)N3C` [Compound 30, 2,2,4,9-tetramethyl-6-[[(1R)-1-[3-(difluoromethyl)-2-fluoro-phenyl]ethyl]amino]pyridazino[4,5-g][1,4]benzoxazin-3-one], for which the IC50 was 14.8 nM.

Consider `Cc1nnc(N[C@H](C)c2cccc(C(F)(F)C(C)(C)O)c2)c2cc3c(cc12)n(C)c(=O)n3C1(C)CC1` [Compound 83, 1,8-dimethyl-3-(1-methylcyclopropyl)-5-[[(1R)-1-[3-(1,1-difluoro-2-hydroxy-2-methyl-propyl)phenyl]ethyl]amino]imidazo [4,5-g]phthalazin-2-one], for which the IC50 was 7.94 nM.

For the compound `Cc1c(-c2ccn[nH]2)cccc1[C@@H](C)Nc1nnc(C)c2cc3c(cc12)n(C)c(=O)n3C` [Compound 155, 1,3,8-trimethyl-5-[[(1R)-1-[2-methyl-3-(1H-pyrazol-5-yl)phenyl]ethyl]amino]imidazo[4,5-g]phthalazin-2-one], the IC50 is 30.9 nM.

Consider `Cc1nnc(N[C@H](C)c2cccc(C(F)(F)CO)c2)c2cc3c(cc12)C(C)(C)C(=O)N3C` [Compound 78, 1,3,3,5-tetramethyl-8-[[(1R)-1-[3-(1,1-difluoro-2-hydroxy-ethyl)phenyl]ethyl]amino]pyrrolo [2,3-g]phthalazin-2-one], for which the IC50 is 9.55 nM.

Consider `CCOC1(C)C(=O)N(C)c2cc3c(N[C@H](C)c4cccc(C(F)(F)C(C)(C)O)c4C)nnc(C)c3cc21` (stereo partly drawn) [Compound 126, 3-ethoxy-1,3,5-trimethyl-8-[[(1R)-1-[3-(1,1-difluoro-2-hydroxy-2-methyl-propyl)-2-methyl-phenyl]ethyl]amino]pyrrolo[2,3-g]phthalazin-2-one], for which the IC50 is 9.12 nM.

With `Cc1nnc(N[C@H](C)c2cccc(C(F)(F)C(C)(C)O)c2F)c2cc3c(cc12)N(C)C(=O)C31CCOCC1` [Compound 115, 1,8-dimethyl-5-[[(1R)-1-[3-(1,1-difluoro-2-hydroxy-2-methyl-propyl)-2-fluoro-phenyl]ethyl]amino]spiro[pyrrolo[3,2-g]phthalazine-3,4′-tetrahydropyran]-2-one], the IC50 is 6.61 nM.

For `Cc1nnc(N[C@H](C)c2cccc(C(F)(F)C(C)(C)O)c2F)c2cc3c(cc12)C(C)(C)C(=O)N3C` [Compound 46, 1,3,3,5-tetramethyl-8-[[(1R)-1-[3-(1,1-difluoro-2-hydroxy-2-methyl-propyl)-2-fluoro-phenyl]ethyl]amino]pyrrolo[2,3-g]phthalazin-2-one], the IC50 is 11 nM.
